Results: a melting point compilation (Tetko et al.; mined from patent text by program, amines drawn as free bases though some values may be those of a salt)

melting point [°C]	Compound
91 to 100	CC(C(=O)O)c1ccc(OCCNC(=O)C2Cc3ccccc3N2S(=O)(=O)c2ccc(-c3cc(C(F)(F)F)ccc3Cl)cc2)cc1 (stereo unspecified)
296 to 297	CSc1ccc(Cc2cccc(-c3c(O)c4ccc(Cl)cc4[nH]c3=O)c2)cc1
198	O=C1Nc2cccnc2N(CC#CCN2CCCCC2)c2ccccc21
113 to 114	COC(=O)C1=CC(=O)CC(c2ccc(Cl)cc2)N1 (stereo unspecified)
108 to 111	Cc1ccc(NC(=O)NCCN2CCN=C2c2ccccc2Cl)cc1
206	Nc1ccc(-n2c(-c3ccccc3)cc3c2CCCC3)cc1C(=O)O
104	COCCc1nc2c(N)nc3ccccc3c2n1CCOCCCc1ccccc1
110 to 111	C=CCc1cc2c(c(CC=C)c1O)S(=O)CN2CC=C (stereo unspecified)
132 to 133	CC(C)Sc1nc(-c2ccc(Cl)cc2)c(CCC(=O)O)o1
220 to 222	COc1ccccc1-c1coc2c(O)c(O)ccc2c1=O
253	CCC(C)(C)c1ccc(Oc2ccncc2NC(=O)c2ccccc2)c(C(C)(C)CC)c1
72	Nc1cc(Oc2ccccc2)ccc1[N+](=O)[O-]
78	C=CCOc1ccccc1N(CC1CO1)S(C)(=O)=O (stereo unspecified)
149 to 153	OC1CCCc2nc3cc(F)ccc3c(NCc3ccccc3C(F)(F)F)c21 (stereo unspecified)
138 to 139	CCCCCCCCCCC(=O)NCc1cccc2c1C(=O)N(C1CCC(=O)NC1=O)C2=O (stereo unspecified)
65.5 to 66.5	CCCCCCCCCCCCC#CC#CCCCCCCCC(C(N)=O)C(C)c1ccccc1 (stereo unspecified)
122 to 123	Cn1cc(Br)cc([N+](=O)[O-])c1=O
279 to 281	Cc1nc2c3c(c(CO)cc2n1C)CCC(c1ccccc1)O3 (stereo unspecified)
172 to 174	O=C(Nc1ccc(-n2nc(-c3ccccc3)c3cccnc32)cc1)C(F)(F)F
114 to 116	Oc1cccc(-c2noc3ccsc23)c1
146 to 148	COc1cc(Oc2cccc(C(F)(F)F)c2)nc(C(=O)NN=C2CCCC2)c1
177	CC(C)C(C)(NC(c1ccccc1)c1ccccc1)P(O)O (stereo unspecified)
66 to 69	COc1ccc(-c2ccccc2C)cc1C=O

melting point [°C]	Compound
216 to 218	Clc1ccc2c3c(cnc2c1)OC1(C=N3)CCCCC1
212 to 213	COc1ccc(Cn2c(C)cc3cn[nH]c(=O)c32)cc1
158 to 159	NC(=O)CCc1conc1-c1ccc(Cl)cc1
156 to 158	Cc1[nH]nc(Oc2c(Cl)cc(C(F)(F)F)cc2Cl)c1Cl
110 to 112	O=C(NCC1Cc2ccc3ccccc3c2O1)OCc1ccccc1 (stereo unspecified)
291 to 294	O=C(O)C1Cc2cc3c(=O)c4c(Cl)cccc4oc3c(Cl)c2O1 (stereo unspecified)
134 to 136	Cc1cccc(C)c1C(=O)NC(C)(C)C
190 to 196	COc1ccc(CNc2c(OCCC(O)c3ccc(Cl)cc3)n[nH]c(=O)c2Br)cc1OC (stereo unspecified)
160 to 161	Nc1ccc(-c2nc3ccccc3s2)cc1Br
197 to 200	Nc1ncc(C#Cc2ccc(Cl)cc2)c(NCCO)n1
123 to 125	CC(c1cccc2c1C(=O)NS2(=O)=O)[Si](C)(C)C (stereo unspecified)
130	CCOC(=O)C1=C(C)NN=C(c2ccccc2)C1c1ccccc1 (stereo unspecified)
128	COc1ccc2ccc(N3C(=O)c4ccccc4C3NCCCN(C)C)nc2n1 (stereo unspecified)
165	COc1nnc(-c2ccccc2)c(=O)n1N
182	COC(=O)N1CCCCc2cc(C3=NNC(=O)SC3C)ccc21 (stereo unspecified)
129 to 135	Cc1cccc(Nc2ncnc3ccc(OCCBr)cc23)c1
78 to 79	O=C(CCc1ccccc1)c1ccc(Cl)cc1
249 to 251	CC1(C)CC(=O)Nc2cc(C(=O)Nc3ccccc3)ccc21
152 to 153	COc1ccc(-c2cc(-c3ccccc3F)c(C#N)c(C)n2)cc1
101 to 104	O=C(NCCNCC(O)COc1ccc(O)cc1F)C1CCOCC1 (stereo unspecified)
116 to 118	COc1ccc(NCCSC#N)c([N+](=O)[O-])c1
160 to 161	COC(=O)c1ccc(Nc2ccn(-c3ccccc3)n2)cc1
186 to 188	CCOC(=O)c1[nH]c2cccc(C)c2c1Sc1ccc(Cl)cc1

melting point [°C]	Compound
55 to 55.5	COC(=S)CCc1cc(C(C)(C)C)cc(C(C)(C)C)c1O
166 to 168	CCCOC(=O)c1c(Cn2ccnc2)nc2cc(OC)c(OC)cc2c1-c1ccc(OC)c(OC)c1
104 to 107	CC(=O)NC1(c2ccc(C(C)Cl)cc2)CC1 (stereo unspecified)
194 to 196	O=c1cc(CCl)nc2ccn(-c3ccccc3)n12
90 to 101	N=C(N)NCCc1ccc(OCCC2Oc3ccccc3N(Cc3cccc(Cl)c3)C2=O)cc1 (stereo unspecified)
61 to 68	CC(C)C[C@H](N)C(=O)N1CCN(C(c2ccc(F)cc2)c2ccc(F)cc2)CC1
84 to 87	c1ccc(Cn2c(N3CCCCC3)nc3ccccc32)cc1
261 to 264	COc1ccc([N+](=O)[O-])c(Nc2ccc3cn[nH]c3c2)n1
199 to 201	Cc1cc(O)ccc1Nc1nc(N)ncc1Oc1ccc(Cl)cc1
135 to 136	CCOC(=O)C(=O)C(C#N)c1ccc(Cl)cc1 (stereo unspecified)
105 to 106	CCc1ncnc(NC2CCC3(CC2)OCC(c2ccccc2)O3)c1Cl (stereo unspecified)
186 to 190	O=c1c2c(oc3ncccc13)-c1ccccc1CCC2
187 to 189	CCCCNc1cc(Cl)c(S(C)(=O)=O)cc1C(=O)O
118 to 119	COc1ccc(Nc2ccc(O)cc2)c(C(C)=O)c1
86	CC(C)NCC(O)COc1ccc(OCCSCC2CC2)cc1 (stereo unspecified)
195 to 196	CC(C(=O)Nc1ccc(C(=O)O)cc1)c1ccc2c(c1)C(C)(C)CCC2(C)C (stereo unspecified)
212 to 214	COc1ccc(NC(=O)c2ccc(F)c(F)c2)cc1NS(=O)(=O)c1cccc(C#N)c1
148 to 150	CC(C)S(=O)(=O)C(C#N)=C(Nc1cc(C(F)(F)F)cc(C(F)(F)F)c1)NC1CCC1
105	CC(C)(C)C(=O)Oc1ccc(-c2nn(C3CCCC3)c3c(F)cccc23)cc1
94 to 96	CSCCOc1ccc(/C=C(\C)c2ccc3c(c2)C(C)(C)CCC3(C)C)cc1
125 to 127	CCCCCc1c(C(C)O)nc(C(C)C)c(CO)c1-c1ccc(F)cc1 (stereo unspecified)
84 to 85.5	CCOC(=O)C(=O)c1ccccc1Nc1c(Cl)cccc1Cl
126 to 128	O=C(O)c1cc(Br)ccc1OCC(F)(F)F

Compound	melting point [°C]
[N-]=[N+]=NCCCCCCC(N)=O	62
NC(=NO)c1ncn2c1[C@@H]1CCN1C(=O)c1c(Br)cccc1-2	265 to 266
COc1ccc(C(=O)Nc2cccc3c2CCN(C)C3)cc1	170 to 172
NCc1noc(-c2ncn3c2[C@@H]2CCN2C(=O)c2c(Cl)cccc2-3)n1	206 to 208
O=C(CNC(=O)[C@@H]1CCCN1)Nc1ccc([N+](=O)[O-])cc1C(=O)c1ccccc1	165 to 167
COCCN1C(=S)N(c2ccc(C#N)c(C(F)(F)F)c2)C(=O)C1(C)C	98 to 99
OCc1ccc(-c2ccc3[nH]cc(C[C@H]4CCCN4)c3c2)cc1	65 to 69
